Patent US7473692B2, “Sulfonamide derivatives as D3-receptor ligands” (Richter Gedeon Vegyeszeti Gyar Rt., priority 2001, dated 2009)
Counter-ions that a name gives are not always drawn.

How the values were obtained:
[1] = molecular target: T1, rat recombinant D3 receptors expressed in Sf9 cells (Rattus norvegicus, UniProt P19020); assay: D3 receptor binding ([3H]-spiperone); details: [3H]-spiperone 0.4 nM; non-specific binding with haloperidol 10 μM
T1 construct: purchased Research Biochemical International D-181; host or cells: Sf9 cells
Experimental: Binding study was carried out on rat recombinant D3 receptors expressed in Sf9 cells using [^3H]-spiperone (0.4 nM) as ligand and haloperidol (10 μM) for determination of non-specific binding.

[2] = molecular target: T2, D2 receptor, rat striatal tissue (Rattus norvegicus, UniProt P61169); assay: D2 receptor binding ([3H]-spiperone); details: [3H]-spiperone 0.5 nM, non-specific binding with (±)-sulpiride 10 μM
T2 construct: from tissue; host or cells: rat striatal tissue
Experimental: Binding of [^3H]-spiperone (0.5 nM) to rat striatal tissue was measured according to the method of Seeman (J. Neurochem., 1984, 43 221-235). The non-specific binding was determined in the presence of (±)-sulpiride (10 μM).

T1 sequence (P19020 whole entry): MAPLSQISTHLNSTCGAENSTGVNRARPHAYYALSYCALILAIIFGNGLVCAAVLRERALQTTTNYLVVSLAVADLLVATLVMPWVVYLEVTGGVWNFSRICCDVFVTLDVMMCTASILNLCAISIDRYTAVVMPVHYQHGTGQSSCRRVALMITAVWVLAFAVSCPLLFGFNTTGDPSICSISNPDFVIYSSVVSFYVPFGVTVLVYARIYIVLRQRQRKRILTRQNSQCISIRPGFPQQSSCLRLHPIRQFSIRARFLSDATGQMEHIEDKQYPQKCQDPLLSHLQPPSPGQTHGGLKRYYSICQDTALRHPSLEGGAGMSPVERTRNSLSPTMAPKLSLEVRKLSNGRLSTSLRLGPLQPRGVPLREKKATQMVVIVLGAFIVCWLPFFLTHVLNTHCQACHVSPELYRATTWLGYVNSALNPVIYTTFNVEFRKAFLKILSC
T2 sequence (P61169 whole entry): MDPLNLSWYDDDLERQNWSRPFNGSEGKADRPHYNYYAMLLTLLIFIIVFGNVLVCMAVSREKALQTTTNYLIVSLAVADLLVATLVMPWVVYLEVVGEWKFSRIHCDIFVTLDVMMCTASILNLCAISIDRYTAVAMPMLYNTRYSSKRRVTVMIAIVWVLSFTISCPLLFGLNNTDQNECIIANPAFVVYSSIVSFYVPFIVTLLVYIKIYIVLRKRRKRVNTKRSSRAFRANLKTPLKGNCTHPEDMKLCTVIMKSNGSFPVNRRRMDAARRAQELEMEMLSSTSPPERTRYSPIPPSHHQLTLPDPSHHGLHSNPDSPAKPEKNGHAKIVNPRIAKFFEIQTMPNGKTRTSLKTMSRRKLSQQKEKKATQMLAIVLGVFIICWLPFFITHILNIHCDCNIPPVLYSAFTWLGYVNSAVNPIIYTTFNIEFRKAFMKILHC

| SMILES | melting point [°C] | IC50 [1] [nM] | IC50 [2] [nM] |
| --- | --- | --- | --- |
| COc1cc(-c2ccccc2)ccc1N1CCN(CC[C@H]2CC[C@H](NS(=O)(=O)N(C)C)CC2)CC1 (as salt: hydrochloride) [compound 70001488, Trans-N′-(4-{2-[4-(3-methoxy-biphenyl-4-yl)-piperazin-1-yl]-ethyl}-cyclohexyl)-N,N-dimethyl] | 243 to 246 | – | – |
| CCCCS(=O)(=O)N[C@H]1CC[C@H](CCN2CCN(c3ccc(-c4ccccc4)cc3OC)CC2)CC1 [compound 70001485, Trans-N-(4-{2-[4-(3-methoxy-biphenyl-4-yl)-piperazin-1-yl]-ethyl}-cyclohexyl)-buthanesulfonamide] | – | 5.5 | 2590 |
| COc1cc(-c2ccccc2)ccc1N1CCN(CC[C@H]2CC[C@H](NS(=O)(=O)N(C)C)CC2)CC1 [compound 70001488, Trans-N′-(4-{2-[4-(3-methoxy-biphenyl-4-yl)-piperazin-1-yl]-ethyl}-cyclohexyl)-N,N-dimethyl] | – | 4.3 | 245 |
| N#Cc1cc(N2CCN(CC[C@H]3CC[C@H](NS(=O)(=O)c4ccc(Cl)cc4)CC3)CC2)cc(C(F)(F)F)c1 [compound 70001492, Trans-4-chloro-N-(4-{2-[4-(3-cyano-5-trifluoromethyl-phenyl)-piperazin-1-yl]-ethyl}-cyclohexyl)-benzenesulfonamide] | – | 2 | 65 |
| CCCCS(=O)(=O)N[C@H]1CC[C@H](CCN2CCC(Nc3cccc(C(F)(F)F)c3)CC2)CC1 [compound 70001588, Trans-N-(4-{2-[4-(3-trifluoromethyl-phenylamino)-piperidin-1-yl]-ethyl}-cyclohexyl)-buthanesulfonamide] | – | 2.5 | 102 |
| O=S(=O)(N[C@H]1CC[C@H](CCN2CCC(Nc3cccc(C(F)(F)F)c3)CC2)CC1)c1ccc(Cl)cc1 [compound 70001589, Trans-4-chloro-N-(4-{2-[4-(3-trifluoromethyl-phenylamino)-piperidin-1-yl]-ethyl}-cyclohexyl)-benzenesulfonamide] | – | 3 | 16 |
| CCCCS(=O)(=O)N[C@H]1CC[C@H](CCN2CCN(c3cccc(C(F)(F)F)c3)CC2)CC1 [compound 70001596, Trans-N-(4-{2-[4-(3-trifluoromethyl-phenyl)-piperazin-1-yl]-ethyl}-cyclohexyl)-buthanesulfonamide] | – | 0.6 | 110 |
| O=S(=O)(N[C@H]1CC[C@H](CCN2CCC(Cc3cccc(F)c3)CC2)CC1)c1ccc(Cl)cc1 [compound 70001686, Trans-4-chloro-N-(4-{2-[4-(3-fluoro-phenylmethyl)-piperidin-1-yl]-ethyl}-cyclohexyl)-benzenesulfonamide] | – | 3.9 | 345 |
| N#Cc1cc(N2CCN(CC[C@H]3CC[C@H](NS(=O)(=O)c4ccc(Cl)s4)CC3)CC2)cc(C(F)(F)F)c1 [compound 70001766, Trans-5-chloro-N-(4-{2-[4-(3-cyano-5-trifluoromethyl-phenyl)-piperazin-1-yl]-ethyl}-cyclohexyl)-2-thiophenesulfonamide] | – | 5.3 | 128 |
| CN(C)S(=O)(=O)N[C@H]1CC[C@H](CCN2CCN(c3cc(C#N)cc(C(F)(F)F)c3)CC2)CC1 [compound 70001788, Trans-N′-(4-{2-[4-(3-cyano-5-trifluoromethyl-phenyl)-piperazin-1-yl]-ethyl}-cyclohexyl)-N,N-dimethyl-sulfamide] | – | 1.5 | 290 |
| O=S(=O)(N[C@H]1CC[C@H](CCN2CCC(Oc3cccc(C(F)(F)F)c3)CC2)CC1)c1cccnc1 [compound 70001875, Trans-N-(4-{2-[4-(3-trifluoromethyl-phenoxy)-piperidin-1-yl]-ethyl}-cyclohexyl)-3-pyridinesulfonamide] | – | 2.8 | 66 |
| O=S(=O)(CCCN1CCOCC1)N[C@H]1CC[C@H](CCN2CCN(c3cccc(C(F)(F)F)c3)CC2)CC1 [compound 70001934, Trans-N-(4-{2-[4-(3-trifluoromethyl-phenyl)-piperazin-1-yl]-ethyl}-cyclohexyl)-4-morpholinepropanesulfonamide] | – | 1 | 109 |
| O=S(=O)(N[C@H]1CC[C@H](CCN2CCN(c3cccc(C(F)(F)F)c3)CC2)CC1)c1cccnc1 [compound 70001935, Trans-N-(4-{2-[4-(3-trifluoromethyl-phenyl)-piperazin-1-yl]-ethyl}-cyclohexyl)-3-pyridinesulfoamide] | – | 0.3 | 29 |
